Columns and labels:
lambsquarters = experiment: Test C pre-/postemergence herbicide test; format: in vivo, Chenopodium album
Summary of the method: (§1)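 Greenhouse pots; formulation = non-phytotoxic solvent mix + surfactant. PRE onto seeds in loam:sand; POST at 1–4 leaves (2–18 cm) in peat moss/vermiculite medium. Read-out: visual % control vs untreated, day 13–15.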

ryegrass, Italian = experiment: Test C pre-/postemergence herbicide test; format: in vivo, Lolium multiflorum
Summary of the method: as §1

sedge, umbrella = experiment: Test B flooded paddy test; format: in vivo, Cyperus difformis; conditions: 500 g ai/ha, Flood; scale of 0 to 100 where 0 is no effect and 100 is complete control
Summary of the method: (§2)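 Paddy-water application at a 3 cm flood, young plants having two leaves. Water level maintained; greenhouse, 13–15 days; visual 0–100 control rating.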

morningglory = experiment: Test C pre-/postemergence herbicide test; format: in vivo, Ipomoea coccinea
Summary of the method: as §1

barnyardgrass [1] = experiment: Test C pre-/postemergence herbicide test; format: in vivo, Echinochloa crus-galli
Summary of the method: as §1

ducksalad = experiment: Test B flooded paddy test; format: in vivo, Heteranthera limosa; conditions: 500 g ai/ha, Flood; scale of 0 to 100 where 0 is no effect and 100 is complete control
Summary of the method: as §2

waterhemp = experiment: Test C pre-/postemergence herbicide test; format: in vivo, Amaranthus rudis
Summary of the method: as §1

soybean = experiment: Test C pre-/postemergence herbicide test; format: in vivo, Glycine max
Summary of the method: as §1

ragweed = experiment: Test C pre-/postemergence herbicide test; format: in vivo, Ambrosia elatior
Summary of the method: as §1

oat, wild = experiment: Test C pre-/postemergence herbicide test; format: in vivo, Avena fatua; conditions: Postemergence
Summary of the method: as §1

barnyardgrass [2] = experiment: Test B flooded paddy test; format: in vivo, Echinochloa crus-galli; conditions: 500 g ai/ha, Flood; scale of 0 to 100 where 0 is no effect and 100 is complete control
Summary of the method: as §2

galium = experiment: Test C pre-/postemergence herbicide test; format: in vivo, Galium aparine; conditions: Preemergence
Summary of the method: as §1

wheat (winter wheat) = experiment: Test C pre-/postemergence herbicide test; format: in vivo, Triticum aestivum
Summary of the method: as §1

corn = experiment: Test C pre-/postemergence herbicide test; format: in vivo, Zea mays
Summary of the method: as §1

pigweed = experiment: Test C pre-/postemergence herbicide test; format: in vivo, Amaranthus retroflexus
Summary of the method: as §1

[3] = Postemergence, 31 g ai/ha, scale 0 to 100 (0 no effect, 100 complete control)
[4] = Postemergence, 62 g ai/ha, scale 0 (no effect) to 100 (complete control)
[5] = Postemergence, 125 g ai/ha, scale 0 to 100 (0 no effect, 100 complete control)
[6] = Postemergence, 250 g ai/ha, scale 0 to 100 (0 no effect, 100 complete control)
[7] = Preemergence, 31 g ai/ha, scale 0 to 100, 0 is no effect and 100 is complete control
[8] = Preemergence, 62 g ai/ha, scale 0 to 100 (0 no effect, 100 complete control)
[9] = Preemergence, 125 g ai/ha, scale 0 to 100

O=C1NCC(c2cccc(C(F)(F)F)c2)C1C(=O)Nc1cccc(Cl)c1F (centres unmarked) [Compound 316]
25: Plant response rating, Morningglory (morningglory; [9]) | Pigweed plant response rating (pigweed; [7]) | Pigweed plant response rating (pigweed; [8])
75: Corn plant response rating (corn; [8]) | Plant response rating (scale of 0 to 100), Corn (corn; Preemergence, 250 g ai/ha) | Plant response rating, Pigweed (pigweed; [6])
15: Corn plant response rating (corn; [7]) | Plant response rating, Pigweed (pigweed; [3])
5: Plant response rating, Ryegrass, Italian (ryegrass, Italian; [6]) | Plant response rating, Oat, Wild (oat, wild; 125 g ai/ha, scale 0 to 100 (0 no effect, 100 complete control)) | Wheat plant response rating (wheat (winter wheat); [8])
55: Plant response rating, Lambsquarters (lambsquarters; [3]) | Plant response rating, Morningglory (morningglory; [3]) | Plant response rating, Waterhemp (waterhemp; [6])
60: Plant response rating, Barnyardgrass (barnyardgrass [1]; [5]) | Plant response rating, Barnyardgrass (barnyardgrass [2]) | Plant response rating, Pigweed (pigweed; [5])
30: Plant response rating, Oat, Wild (oat, wild; 250 g ai/ha, scale 0 to 100 (0 no effect, 100 complete control))
70: Plant response rating, Barnyardgrass (barnyardgrass [1]; [6])
90: Plant response rating, Barnyardgrass (barnyardgrass [1]; Preemergence, 125 g ai/ha, scale 0 to 100 (0 no effect, 100 complete control)) | Plant response rating (scale of 0 to 100; 0 is no effect, 100 is complete control), Barnyardgrass (barnyardgrass [1]; Preemergence, 250 g ai/ha) | Plant response rating (scale of 0 to 100), Galium (galium; 250 g ai/ha)
10: Plant response rating, Ryegrass, Italian (ryegrass, Italian; [9]) | Plant response rating, Morningglory (morningglory; [5]) | Plant response rating, Morningglory (morningglory; [6]) | Plant response rating, Barnyardgrass (barnyardgrass [1]; [3]) | Plant response rating, Waterhemp (waterhemp; [3]) | Plant response rating, Waterhemp (waterhemp; [4]) | Plant response rating, Waterhemp (waterhemp; [5]) | Plant response rating, Ragweed (ragweed; [9])
0: Lambsquarters plant response rating (lambsquarters; [7]) | Plant response rating, Ryegrass, Italian (ryegrass, Italian; [3]) | Plant response rating, Ryegrass, Italian (ryegrass, Italian; [4]) | Plant response rating, Ryegrass, Italian (ryegrass, Italian; [5]) | Ryegrass, Italian plant response rating (ryegrass, Italian; [8]) | Plant response rating, Sedge, Umbrella (sedge, umbrella) | Plant response rating, Morningglory (morningglory; [4]) | Morningglory plant response rating (morningglory; [7]) | Morningglory plant response rating (morningglory; [8]) | Plant response rating, Soybean (soybean; [3]) | Plant response rating, Soybean (soybean; [4]) | Plant response rating, Soybean (soybean; [5]) | Plant response rating, Soybean (soybean; [6]) | Soybean plant response rating (soybean; [8]) | Plant response rating, Soybean (soybean; [9]) | Plant response rating, Ragweed (ragweed; [4]) | Ragweed plant response rating (ragweed; [8]) | Plant response rating, Oat, Wild (oat, wild; 31 g ai/ha, scale 0 to 100 (0 no effect, 100 complete control)) | Plant response rating, Oat, Wild (oat, wild; 62 g ai/ha, scale 0 (no effect) to 100 (complete control)) | Galium plant response rating (galium; 31 g ai/ha, scale 0 to 100, 0 is no effect and 100 is complete control) | Galium plant response rating (galium; 62 g ai/ha, scale 0 to 100 (0 no effect, 100 complete control)) | Plant response rating, Galium (galium; 125 g ai/ha, scale 0 to 100) | Plant response rating, Wheat (wheat (winter wheat); [3]) | Plant response rating, Wheat (wheat (winter wheat); [4]) | Plant response rating, Wheat (wheat (winter wheat); [5]) | Plant response rating, Wheat (wheat (winter wheat); [6]) | Plant response rating, Corn (corn; [3]) | Plant response rating, Corn (corn; [4]) | Plant response rating, Corn (corn; [5]) | Plant response rating, Corn (corn; [6])
100: Plant response rating, Ducksalad (ducksalad)
20: Lambsquarters plant response rating (lambsquarters; [8])
40: Plant response rating, Lambsquarters (lambsquarters; [5]) | Plant response rating, Wheat (wheat (winter wheat); [9])
65: Plant response rating, Lambsquarters (lambsquarters; [4]) | Plant response rating, Lambsquarters (lambsquarters; [6]) | Plant response rating, Lambsquarters (lambsquarters; [9]) | Plant response rating (scale of 0 to 100), Lambsquarters (lambsquarters; Preemergence, 250 g ai/ha) | Plant response rating, Ragweed (ragweed; [6]) | Plant response rating, Corn (corn; [9])
35: Plant response rating (scale of 0 to 100), Morningglory (morningglory; Preemergence, 250 g ai/ha) | Plant response rating, Barnyardgrass (barnyardgrass [1]; [4]) | Waterhemp plant response rating (waterhemp; [8]) | Plant response rating, Waterhemp (waterhemp; [9]) | Plant response rating, Ragweed (ragweed; [5])
50: Plant response rating, Pigweed (pigweed; [4])
45: Plant response rating, Ragweed (ragweed; [3]) | Plant response rating, Pigweed (pigweed; [9])
85: Barnyardgrass plant response rating (barnyardgrass [1]; [7]) | Barnyardgrass plant response rating (barnyardgrass [1]; [8])
